Measured values taken from US20260049289A1, “ARRAY PLATFORM FOR HIGH-THROUGHPUT ORGANOID PROFILING” (CZ Biohub SF, LLC, priority 2022, published 2026).

Test system: patient-derived pancreatic ductal adenocarcinoma (PDAC) organoids
Test: Drug testing of patient-derived PDAC organoids treated with gemcitabine in the microwell platform
Type: cell-based, human
Details: PDAC organoids derived from the same parental cells, imaging (FIG. 6)
Description: FIG. 6: Representative drug evaluation of patient-derived pancreatic ductal adenocarcinoma organoids treated with gemcitabine. Upper panel, organoids sensitive to gemcitabine; lower panel, organoids resistance to gemcitabine. Organoids are a desirable choice for drug screening studies because they retain 3D cellular architecture and therefore recapitulate physiological conditions to a higher degree than traditional cell lines. […] Organoids sensitive to gemcitabine (FIG. 6, top panel) were growth-stunted and/or dissociated compared to resistant organoids (FIG. 6, bottom panel). Whole organoids that display resistance to a drug, can be retrieved and further evaluated, e.g., for genomic changes and/or changes in RNA expression profiles, to evaluate mechanisms of drug resistance, for example, innate versus acquired resistance.

Nc1ccn([C@@H]2O[C@H](CO)[C@@H](O)C2(F)F)c(=O)n1 [gemcitabine]
observed drug response of single organoids (growth, dissociation): heterogeneity in observed drug response
